Laboratory results from PubChem BioAssay AID2060890 (Molecular Pharmacology Branch, DTP, NCI, 2025).

Test system: LG0703-F948-PDC complex spheroid viability
Experiment: Anticancer human tumor LG0703-F948-PDC patient-derived lung adenocarcinoma cell line growth inhibition [RAS]
Details: for IC50: curve of first compound; for viability, T/C: stronger effect = lower value
Outline: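 Agents were tested in combination matrices in half-log decrements from a top concentration at or near clinical Cmax (10 microM if undetermined). Targets were multi-cell spheroids of tumour lines plus HUVEC and MSC stromal cells.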

[1] = second compound 0.000949 µM, first compound 0.00316 µM
[2] = second compound 0.000949 µM, first compound 0.01 µM
[3] = second compound 0.000949 µM, first compound 0.0316 µM
[4] = second compound 0.000949 µM, first compound 0.1 µM
[5] = second compound 0.000949 µM, first compound 0.316 µM
[6] = second compound 0.000949 µM, first compound 1 µM
[7] = second compound 0.003 µM, first compound 0.00316 µM
[8] = second compound 0.003 µM, first compound 0.01 µM
[9] = second compound 0.003 µM, first compound 0.0316 µM
[10] = second compound 0.003 µM, first compound 0.1 µM
[11] = second compound 0.003 µM, first compound 0.316 µM
[12] = second compound 0.003 µM, first compound 1 µM
[13] = second compound 0.00949 µM, first compound 0.00316 µM
[14] = second compound 0.00949 µM, first compound 0.01 µM
[15] = second compound 0.00949 µM, first compound 0.0316 µM
[16] = second compound 0.00949 µM, first compound 0.1 µM
[17] = second compound 0.00949 µM, first compound 0.316 µM
[18] = second compound 0.00949 µM, first compound 1 µM
[19] = second compound 0.03 µM, first compound 0.00316 µM
[20] = second compound 0.03 µM, first compound 0.01 µM
[21] = second compound 0.03 µM, first compound 0.0316 µM
[22] = second compound 0.03 µM, first compound 0.1 µM
[23] = second compound 0.03 µM, first compound 0.316 µM
[24] = second compound 0.03 µM, first compound 1 µM
[25] = second compound 0.0949 µM, first compound 0.00316 µM
[26] = second compound 0.0949 µM, first compound 0.01 µM
[27] = second compound 0.0949 µM, first compound 0.0316 µM
[28] = second compound 0.0949 µM, first compound 0.1 µM
[29] = second compound 0.0949 µM, first compound 0.316 µM
[30] = second compound 0.0949 µM, first compound 1 µM
[31] = second compound 0.3 µM, first compound 0.00316 µM
[32] = second compound 0.3 µM, first compound 0.01 µM
[33] = second compound 0.3 µM, first compound 0.0316 µM
[34] = second compound 0.3 µM, first compound 0.1 µM
[35] = second compound 0.3 µM, first compound 0.316 µM
[36] = second compound 0.3 µM, first compound 1 µM
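Also: spheroids exposed to agents for 7 days.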
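For viability, T/C in this document: 100% = DMSO vehicle wells.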

Which IC50 (second compound 0.000949 µM) does the source give for `C=CC(=O)Nc1cc(Nc2nccc(-c3cn(C)c4ccccc34)n2)c(OC)cc1N(C)CCN(C)C` + CCn1c(-c2cc(N3CCN(C)CC3)cnc2C(C)OC)c2c3cc(ccc31)-c1csc(n1)CC(NC(=O)C1CC1C)C(=O)N1CCCC(N1)C(=O)OCC(C)(C)C2 here?
The IC50 was 5.17 nM.

What about the IC50 (second compound 0.003 µM) of the same molecule?
Its IC50 is under 3.16 nM.

What about the IC50 (second compound 0.00949 µM) of the same molecule?
Its IC50 is under 3.16 nM.

And the IC50 (second compound 0.03 µM)?
Its IC50 is under 3.16 nM.

And the IC50 (second compound 0.0949 µM)?
The IC50 was under 3.16 nM.

And the IC50 (second compound 0.3 µM)?
Its IC50 is under 3.16 nM.

What about the viability, T/C [1] of the same molecule?
Its viability, T/C is 62.6%.

What about the viability, T/C [2] of the same molecule?
The viability, T/C was 33%.

And the viability, T/C [3]?
The viability, T/C was 17.7%.

And the viability, T/C [4]?
Its viability, T/C is 12.9%.

What about the viability, T/C [5] of the same molecule?
Its viability, T/C is 11.6%.

What about the viability, T/C [6] of the same molecule?
The viability, T/C was 9.33%.

What about the viability, T/C [7] of the same molecule?
The viability, T/C was 30.5%.

What about the viability, T/C [8] of the same molecule?
The viability, T/C was 18.5%.

What about the viability, T/C [9] of the same molecule?
The viability, T/C was 12.6%.

What about the viability, T/C [10] of the same molecule?
Its viability, T/C is 10.9%.

And the viability, T/C [11]?
Its viability, T/C is 12.3%.

And the viability, T/C [12]?
Its viability, T/C is 8.1%.

And the viability, T/C [13]?
The viability, T/C was 24%.

And the viability, T/C [14]?
Its viability, T/C is 14.2%.

What about the viability, T/C [15] of the same molecule?
Its viability, T/C is 12.6%.

What about the viability, T/C [16] of the same molecule?
The viability, T/C was 9.67%.

And the viability, T/C [17]?
The viability, T/C was 8.83%.

What about the viability, T/C [18] of the same molecule?
Its viability, T/C is 9.91%.

And the viability, T/C [19]?
Its viability, T/C is 14.1%.

And the viability, T/C [20]?
Its viability, T/C is 13.1%.

What about the viability, T/C [21] of the same molecule?
Its viability, T/C is 8.75%.

What about the viability, T/C [22] of the same molecule?
The viability, T/C was 7.03%.

What about the viability, T/C [23] of the same molecule?
The viability, T/C was 6.1%.

What about the viability, T/C [24] of the same molecule?
Its viability, T/C is 4.67%.

What about the viability, T/C [25] of the same molecule?
The viability, T/C was 9.07%.

And the viability, T/C [26]?
The viability, T/C was 7.77%.

And the viability, T/C [27]?
Its viability, T/C is 5.22%.

What about the viability, T/C [28] of the same molecule?
The viability, T/C was 5.15%.

What about the viability, T/C [29] of the same molecule?
The viability, T/C was 5.21%.

What about the viability, T/C [30] of the same molecule?
The viability, T/C was 3.75%.

And the viability, T/C [31]?
The viability, T/C was 7.47%.

And the viability, T/C [32]?
Its viability, T/C is 9.59%.

And the viability, T/C [33]?
The viability, T/C was 5.92%.

And the viability, T/C [34]?
Its viability, T/C is 5.32%.

What about the viability, T/C [35] of the same molecule?
The viability, T/C was 4.11%.

What about the viability, T/C [36] of the same molecule?
The viability, T/C was 2.62%.

For `O=C(c1ccc(F)c(F)c1Nc1ccc(I)cc1F)N1CC(O)([C@@H]2CCCCN2)C1` + CCn1c(-c2cc(N3CCN(C)CC3)cnc2C(C)OC)c2c3cc(ccc31)-c1csc(n1)CC(NC(=O)C1CC1C)C(=O)N1CCCC(N1)C(=O)OCC(C)(C)C2, which IC50 (second compound 0.000949 µM) is on record?
The IC50 was 5.33 nM.

And the IC50 (second compound 0.003 µM)?
The IC50 was under 3.16 nM.

And the IC50 (second compound 0.00949 µM)?
The IC50 was under 3.16 nM.

And the IC50 (second compound 0.03 µM)?
Its IC50 is under 3.16 nM.

What about the IC50 (second compound 0.0949 µM) of the same molecule?
Its IC50 is under 3.16 nM.

What about the IC50 (second compound 0.3 µM) of the same molecule?
Its IC50 is under 3.16 nM.

What about the viability, T/C [1] of the same molecule?
Its viability, T/C is 59.2%.

What about the viability, T/C [2] of the same molecule?
Its viability, T/C is 38.7%.

And the viability, T/C [3]?
The viability, T/C was 28%.

And the viability, T/C [4]?
The viability, T/C was 19.2%.

What about the viability, T/C [5] of the same molecule?
Its viability, T/C is 18.5%.

And the viability, T/C [6]?
The viability, T/C was 14.4%.

And the viability, T/C [7]?
The viability, T/C was 37.1%.

What about the viability, T/C [8] of the same molecule?
The viability, T/C was 22.3%.

What about the viability, T/C [9] of the same molecule?
Its viability, T/C is 19.1%.

What about the viability, T/C [10] of the same molecule?
The viability, T/C was 10.5%.

And the viability, T/C [11]?
The viability, T/C was 11.4%.

What about the viability, T/C [12] of the same molecule?
Its viability, T/C is 8.17%.

What about the viability, T/C [13] of the same molecule?
Its viability, T/C is 17.4%.

And the viability, T/C [14]?
Its viability, T/C is 15.4%.

What about the viability, T/C [15] of the same molecule?
Its viability, T/C is 8.52%.

What about the viability, T/C [16] of the same molecule?
The viability, T/C was 6.3%.

And the viability, T/C [17]?
The viability, T/C was 8.85%.

What about the viability, T/C [18] of the same molecule?
Its viability, T/C is 8.14%.

And the viability, T/C [19]?
The viability, T/C was 10.5%.

And the viability, T/C [20]?
Its viability, T/C is 8.04%.

And the viability, T/C [21]?
Its viability, T/C is 4.84%.

And the viability, T/C [22]?
Its viability, T/C is 3%.

What about the viability, T/C [23] of the same molecule?
Its viability, T/C is 5.82%.

And the viability, T/C [24]?
Its viability, T/C is 4.58%.

And the viability, T/C [25]?
Its viability, T/C is 7.33%.

And the viability, T/C [26]?
The viability, T/C was 6.13%.

And the viability, T/C [27]?
Its viability, T/C is 3.55%.

What about the viability, T/C [28] of the same molecule?
Its viability, T/C is 3.1%.

And the viability, T/C [29]?
The viability, T/C was 3.05%.

What about the viability, T/C [30] of the same molecule?
The viability, T/C was 3.07%.

What about the viability, T/C [31] of the same molecule?
The viability, T/C was 5.13%.

What about the viability, T/C [32] of the same molecule?
Its viability, T/C is 3.55%.

And the viability, T/C [33]?
The viability, T/C was 2.8%.

What about the viability, T/C [34] of the same molecule?
The viability, T/C was 2.47%.

And the viability, T/C [35]?
The viability, T/C was 2.61%.

And the viability, T/C [36]?
Its viability, T/C is 2.35%.
